From patent publication US20170314056A1, “METHOD OF USING NEAR INFRARED FLUORESCENT DYES FOR IMAGING AND TARGETING CANCERS” (priority 2010, published 2017)
“Also recorded” adds a separate entry of the source.

Experiments:
[1] = tested on: organic anion transporting peptides (OATPs); experiment: Blockade of dye uptake into ARCaPM cells by BSP; type: cell-based, human; conditions: 250 μM BSP
Protocol: ARCaPM Cells were plated on live-cell imaging chambers from World Precision Instrument (Sarasota, Fla.) overnight. Cells were treated with 20 μM IR-780 and 250 μM BSP at the same time and cells were imaged using a Perkin-Elmer Ultraview ERS spinning disc confocal microscope.
To determine if the cyanine dye uptake and accumulation in cancer cells was dependent upon OATPs, cells were preincubated with 250 μM bromosulfophthalein (BSP), a competitive inhibitor of organic anion transporting peptides (OATPs) (25), for 5 minutes prior to incubating the cells with cyanine dyes. The uptake and accumulation of cyanine dyes in the presence and absence of BSP were conducted in the stage warmer incubator for a period of 35 minutes. The levels of cyanine dye taken up and accumulated in normal prostate (P69) and prostate cancer (ARCaPM) cells were determined and compared on a real-time basis.

[2] = mouse, in vivo
Protocol: In control mice, the same volume of PBS was injected. The body weight and lethality of these mice were closely followed for 28 days.

[3] = tested on: human renal cancer SN12C at subcutaneous sites; experiment: Structural requirement of uptake and retention by tumor tissues in mice; type: in vivo; conditions: i.p. 10 nmol per mouse, 24 hrs
Protocol: FIG. 46 depicts structural requirement of the uptake and retention of heptamethine cyanine dyes by tumor tissues in mice in accordance with various embodiments of the present invention. Mice bearing human renal cancer SN12C at subcutaneous sites were injected i.p. with MHI-148, IR-1, IR-2, IR-3 and IR-4 heptamethine cyanine dyes at a dose of 10 nmol per mouse. Whole-body optical imaging was taken at 24 hrs using a Kodak Imaging System.
During imaging, mice were maintained in an anesthetized state.

[4] = tested on: cultured human cancer cell lines in vitro and their xenograft tumors in vivo; experiment: Classification of heptamethine cyanine dyes as active or inactive; type: cell-based; set-up: key: Active: Activity of the dyes denotes specific uptake by cultured human cancer cell lines in vitro and their xenograft tumors in vivo, setermined by NIR fluorescence imaging.; Inactive: These heptamethine cyanine dyes were not accumulated in tumor cells in vitro and xenograft tumors in vivo; conditions: specific uptake in vitro and in xenograft tumors in vivo, NIR fluorescence imaging
Text: A comparative analysis also uncovered several common structural features of heptamethine cyanine dyes accounting for their preferential uptake and retention by cancer cells. […] A rigid cyclohexenyl ring in the heptamethine chain with a central chlorine atom maintains photostability, increases quantum yield, decreases photobleaching, and reduces dye aggregation in solution (1).

[5] = tested on: MIA PaCa-2 human pancreatic cancer cells; experiment: Structural requirement screen for cancer cell uptake and retention; type: cell-based; conditions: cultured MIA PaCa-2 cells
Protocol: FIG. 45 depicts structural requirement of heptamethine cyanine dyes for cancer cell uptake and retention in accordance with various embodiments of the present invention. A series of heptamethine cyanine dyes and their derivatives were screened in cultured MIA PaCa-2 human pancreatic cancer cells with parental MHI-148 served as a positive control.
Cells (1×10^4/well) were seeded on vitronectin-coated four-well chamber slides (Nalgen Nunc, Naperville, Ill.) and incubated with T-medium containing 5% FBS for 24 h. After the cells had attached to the chamber slides, the cells were washed with PBS (Phosphate Buffered Saline) and exposed to the cyanine dye at a concentration of 20 μM in T-medium. The slides were incubated at 37° C. for 30 min, washed twice with PBS to remove excess dyes, and cells were fixed with 10% formaldehyde at 4° C. The slides were then washed twice with PBS and covered with glass coverslips with an aqueous mounting medium (Sigma-Aldrich, St. Louis, Mo.). Images were recorded by confocal laser microscopy (Zeiss LSM 510 META, Germany) using a 633 nm excitation laser and 670-810 nm long pass filter, or a fluorescence microscope (Olympus 1×71; Olympus, Melville, N.Y.) equipped with a 75 W Xenon lamp and an Indo-Cyanine Green filter cube (excitation 750-800 nm; emission 820-860 nm) (Chroma, Rockingham, Vt.).

SMILES	effect on uptake of IR-780 by ARCaPM cells ([1]; 20 μM IR-780)	effect on uptake of IR-783 by ARCaPM cells ([1]; 20 μM IR-783)	toxicity as evidenced by gains of body weight [2]	tumor fluorescence signal in whole-body optical imaging [3]	Active and inactive heptamethine cyanine dyes [4]	uptake and retention by cancer cell line compared with MHI-148 [5]
O=C1OC(c2ccc(O)c(S(=O)(=O)O)c2)(c2ccc(O)c(S(=O)(=O)O)c2)c2c(Br)c(Br)c(Br)c(Br)c21 [BSP, bromosulfophthalein]	complete blockade; also recorded: significantly inhibited	abolished; also recorded: abrogated	–	–	–	–
CC1(C)C(/C=C/C=C/C=C/C=C2\N(CCCCS(=O)(=O)O)c3ccc4ccccc4c3C2(C)C)=[N+](CCCCS(=O)(=O)[O-])c2ccc3ccccc3c21 [ICG, indocyanine green, reference compound]	–	–	no toxicity was detected	–	–	–
CC1(C)/C(=C\C=C2/CCCC(/C=C/C3N(CCCO)c4ccccc4C3(C)C)=C2Cl)N(CCCO)c2ccccc21 (stereo not drawn) [IR-1]	–	–	–	background fluorescence signals	Inactive dyes^b	devoid of any uptake and retention
CC(=O)OCCCN1/C(=C/C=C2\CCCC(/C=C/C3N(CCCOC(C)=O)c4ccccc4C3(C)C)=C2Cl)C(C)(C)c2ccccc21 (stereo not drawn) [IR-2]	–	–	–	background fluorescence signals	Inactive dyes^b	devoid of any uptake and retention
CC1(C)/C(=C\C=C2/CCCC(/C=C/C3N(CCCN)c4ccccc4C3(C)C)=C2Cl)N(CCCN)c2ccccc21 (stereo not drawn) [IR-3]	–	–	–	background fluorescence signals	Inactive dyes^b	devoid of any uptake and retention
